Values after ≈ are worked out from the molar mass of the structure shown. Active and inactive are the calls of the source. No cut-off for these calls is given here. Bridge positions count the residues as written; N and C are the ends. Square brackets hold non-standard residues; d marks the D form. Peptide text beside a SMILES is read from it. * marks the point of attachment. Myristoyl = CCCCCCCCCCCCCC(=O)*; X2 = CC(C)=CCC/C(C)=C/C(=O)*; X3 = CC[C@H](C)CCCCC(=O)*; dDab = NCC[C@@H](N)C(=O)O; X1 = CCC(C)CCC(O)CC(=O)*; Dab = NCC[C@H](N)C(=O)O
Tests used:
[1] = Toxicity in iv dosed Kunming mouse assessed as death counted daily for 14 days; type: organism-based; details: in vivo
[2] = tested on: Erythrocyte; experiment: Haemolytic activity in human RBC incubated for 2 hrs; type: ADME, cell-based
[3] = tested on: HEK293; experiment: Cytotoxicity against HEK293 cells after 48 hrs by MTT assay; type: cell-based; details: human, hek293, 48 h
[4] = tested on: Candida albicans; experiment: Antifungal activity against Candida albicans SC5314 after 48 hrs; type: functional; details: SC5314, 48 h
[5] = tested on: Lipid bilayer; experiment: Disruption of phosphatidylcholine/ phosphatidylinositol/phosphatidylethanolamine membrane at 200 uM by colorimetric assay
[6] = tested on: Candida albicans; experiment: Synergistic antifungal activity against Candida albicans SC5314 after 48 hrs in presence of 400 nmol AmB; type: functional; details: SC5314, 48 h
[7] = tested on: Candida albicans; experiment: Synergistic antifungal activity against Candida albicans SC5314 assessed as FIC index after 48 hrs in presence of 400 nmol AmB; type: functional
[8] = tested on: Candida albicans; experiment: Synergistic antifungal activity against Candida albicans SC5314 after 48 hrs in presence of 800 nmol AmB; type: functional; details: SC5314, 48 h
[9] = tested on: Candida albicans; experiment: Synergistic antifungal activity against Candida albicans SC5314 assessed as FIC index after 48 hrs in presence of 800 nmol AmB; type: functional
[10] = tested on: Candida albicans; experiment: Ratio of MIC for Candida albicans SC5314 to MIC for Candida albicans SC5314 in presence of 400 nmol AmB; type: functional
[11] = tested on: Candida albicans; experiment: Ratio of MIC for Candida albicans SC5314 to MIC for Candida albicans SC5314 in presence of 800 nmol AmB; type: functional

| MIC [4] [µM] | Activity [5] | Structure (SMILES) | further results |
| --- | --- | --- | --- |
| – | – | CCC(C)CCC(O)CC(=O)N[C@H](CCN)C(=O)N[C@H]1CCNC(=O)[C@H](CC(C)C)NC(=O)[C@H](CCN)NC(=O)[C@H](CCN)NC(=O)[C@@H](Cc2ccccc2)NC(=O)[C@H](CC(C)C)NC(=O)[C@H](CCN)NC1=O (some centres not stated) (X1-[dDab][Dab][Dab]L[dF][Dab][Dab]L; lactam 2-C) | LD50 at 336 h [1]: 6 mg/kg; Activity [2]: > 750 µg/mL; Activity [3]: > 128 µg/mL |
| 50 (≈ 52.1 µg/mL) | – | CC(C)=CCC/C(C)=C/C(=O)N[C@H](CCN)C(=O)N[C@@H](CCN)C(=O)N[C@@H](CCN)C(=O)N[C@@H](CC(C)C)C(=O)N[C@H](Cc1ccccc1)C(=O)N[C@@H](CCN)C(=O)N[C@@H](CCN)C(=O)N[C@@H](CC(C)C)C(N)=O (X2-[dDab][Dab][Dab]L[dF][Dab][Dab]L-NH2) | – |
| > 100 | inactive | CCCCC(=O)N[C@H](CCN)C(=O)N[C@@H](CCN)C(=O)N[C@@H](CCN)C(=O)N[C@@H](CC(C)C)C(=O)N[C@H](Cc1ccccc1)C(=O)N[C@@H](CCN)C(=O)N[C@@H](CCN)C(=O)N[C@@H](CC(C)C)C(N)=O | – |
| > 100 | inactive | CC(=O)N[C@H](CCN)C(=O)N[C@@H](CCN)C(=O)N[C@@H](CCN)C(=O)N[C@@H](CC(C)C)C(=O)N[C@H](Cc1ccccc1)C(=O)N[C@@H](CCN)C(=O)N[C@@H](CCN)C(=O)N[C@@H](CC(C)C)C(N)=O | – |
| 12.5 (≈ 13.8 µg/mL) | – | CCCCCCCCCCCCCC(=O)N[C@H](CCN)C(=O)N[C@@H](CCN)C(=O)N[C@@H](CCN)C(=O)N[C@@H](CC(C)C)C(=O)N[C@H](Cc1ccccc1)C(=O)N[C@@H](CCN)C(=O)N[C@@H](CCN)C(=O)N[C@@H](CC(C)C)C(N)=O (Myristoyl-[dDab][Dab][Dab]L[dF][Dab][Dab]L-NH2) | – |
| > 100 | – | CC(C)C[C@H](NC(=O)[C@H](CCN)NC(=O)[C@H](CCN)NC(=O)[C@@H](Cc1ccccc1)NC(=O)[C@H](CC(C)C)NC(=O)[C@H](CCN)NC(=O)[C@H](CCN)NC(=O)[C@@H](CCN)NC(=O)[C@H](N)CS)C(N)=O | – |
| > 100 | inactive | CCC(=O)N[C@H](CCN)C(=O)N[C@@H](CCN)C(=O)N[C@@H](CCN)C(=O)N[C@@H](CC(C)C)C(=O)N[C@H](Cc1ccccc1)C(=O)N[C@@H](CCN)C(=O)N[C@@H](CCN)C(=O)N[C@@H](CC(C)C)C(N)=O | – |
| 12.5 (≈ 23.5 µg/mL) | – | CCC(C)CCC(=O)N[C@H](CCN)C(=O)N[C@@H](CCN)C(=O)N[C@@H](CCN)C(=O)N[C@@H](CC(C)C)C(=O)N[C@H](Cc1ccccc1)C(=O)N[C@@H](CCN)C(=O)N[C@@H](CCN)C(=O)N[C@@H](CC(C)C)C(=O)N[C@H](CCN)C(=O)N[C@@H](CCN)C(=O)N[C@@H](CCN)C(=O)N[C@@H](CC(C)C)C(=O)N[C@H](Cc1ccccc1)C(=O)N[C@@H](CCN)C(=O)N[C@@H](CCN)C(=O)N[C@@H](CC(C)C)C(N)=O (some centres not stated) | MIC [6]: 3.12 µM; fractional inhibitory concentration index (FICI) [7]: 2.24; MIC [8]: 1.56 µM; fractional inhibitory concentration index (FICI) [9]: 1.12; Ratio [10]: 4; Ratio [11]: 8 - 32 |
| > 100 | inactive | CCCC(=O)N[C@H](CCN)C(=O)N[C@@H](CCN)C(=O)N[C@@H](CCN)C(=O)N[C@@H](CC(C)C)C(=O)N[C@H](Cc1ccccc1)C(=O)N[C@@H](CCN)C(=O)N[C@@H](CCN)C(=O)N[C@@H](CC(C)C)C(N)=O | – |
| > 100 | – | CC[C@H](C)CCCCC(=O)N[C@@H](CCN)C(=O)N[C@H](C(=O)N[C@@H](CCN)C(=O)N[C@H]1CCNC(=O)[C@H]([C@@H](C)O)NC(=O)[C@H](CCN)NC(=O)[C@H](CCN)NC(=O)[C@H](CC(C)C)NC(=O)[C@@H](Cc2ccccc2)NC(=O)[C@H](CCN)NC1=O)[C@@H](C)O (X3-[Dab]T[Dab][Dab][Dab][dF]L[Dab][Dab]T; lactam 4-C) | – |

From ChEMBL document CHEMBL4145514, “Unexplored antifungal activity of linear battacin lipopeptides against planktonic and mature biofilms of C. albicans” (Eur J Med Chem, 2018)
